Measured values: paper PMC9331004 (Scientific Reports, 2022)
Where two headings read alike, the source gives them in different places.

What was measured:
[1] = in vitro; conditions: African green monkey, CC50, Vero-E6 cells, crystal violet
[2] = system: SARS-CoV-2 (hCoV-19/Egypt/NRC-3/2020, NRC-03-nhCoV); test: microbe, parasite or virus in culture; format: cell-based; conditions: for IC50: Severe acute respiratory syndrome coronavirus 2, Vero C1008, 72 h
[3] = system: MERS-CoV (isolate NRCE-HKU270); test: microbe, parasite or virus in culture; format: cell-based; conditions: for IC50: Middle East respiratory syndrome-related coronavirus
[4] = system: MERS-CoV; format: cell-based
[5] = system: MERS-CoV; format: cell-based; remark: listed apart in the source
[6] = system: SARS-CoV-2; format: cell-based
[7] = system: SARS-CoV-2; test: microbe, parasite or virus in culture; format: cell-based
[8] = read-out: IC50 against SARS-CoV-2
[9] = Vero C1008, read-out: IC50 MERS-CoV
[10] = Vero C1008, read-out: IC50 against MERS-CoV

| SMILES | CC50 at 72 h [1] | CC50 at 72 h ([1]; values given in Fig. 2) | IC50 [2, 8] | IC50 [3, 9] | IC50 [3, 10] | IC50 ([2]; read-out: IC50 SARS-CoV-2) | selectivity index (CC50/IC50) for MERS-CoV [3] | mode of action against MERS-CoV [4] | effect on viral RNA copy number (qRT-PCR) [5] | selectivity index (CC50/IC50) for SARS-CoV-2 [2] | mode of action against SARS-CoV-2 [6] | effect on viral RNA copy number (qRT-PCR) [7] | inhibition at 8.3 µM ([7]; Severe acute respiratory syndrome coronavirus 2, Vero C1008, 48 h, read-out: viral inhibition compared to untreated and infected cells (qRT-PCR)) |
| --- | --- | --- | --- | --- | --- | --- | --- | --- | --- | --- | --- | --- | --- |
| CN(C)CCCC1(c2ccc(F)cc2)OCc2cc(C#N)ccc21 (stereo not drawn) [Citalopram] | 295 µM | 295 µM | 172 µM | 303 µM | 302 µM |  |  |  |  |  |  |  |  |
| CN(C)CCC[C@@]1(c2ccc(F)cc2)OCc2cc(C#N)ccc21 [Escitalopram] | 352 µM |  | 209 µM | 93.6 µM | 93.5 µM |  |  |  |  |  |  |  |  |
| CN(C)CCCN1c2ccccc2CCc2ccccc21 [Imipramine] | 270 µM | 271 µM | 29.4 µM |  | 14.2 µM | 29.5 µM | 19 | virucidal and replication potential combination mechanisms | reduction in viral RNA copy number |  |  |  |  |
| CN[C@H]1CC[C@@H](c2ccc(Cl)c(Cl)c2)c2ccccc21 [Sertraline] | 116 µM |  |  |  |  |  |  | virucidal and adsorption mechanisms | reduction in viral RNA copy number |  |  |  |  |
| CN1CCN(C(=O)O[C@H]2c3nccnc3C(=O)N2c2ccc(Cl)cn2)CC1 [Eszopiclone] | 193 µM |  | 80 µM |  | 99.9 µM | 80 µM |  |  |  |  |  |  |  |
| Fc1ccc([C@@H]2CCNC[C@H]2COc2ccc3c(c2)OCO3)cc1 [Paroxetine] | 264 µM |  | 22.7 µM | 7.73 µM | 7.7 µM |  | 34.2 | virucidal and replication potential combination mechanisms | reduction in viral RNA copy number | 11.6 | remarkable virucidal effect and effects on virus replication | reduction in viral RNA copy number | 99% |
| CN(C)CCC=C1c2ccccc2CCc2ccccc21 [Amitriptyline] | 306 µM |  | 10.7 µM |  | 129 µM |  |  |  |  | 28.5 | remarkable virucidal effect and effects on virus replication | reduction in viral RNA copy number |  |
| CN1CCN2c3ncccc3Cc3ccccc3C2C1 (stereo not drawn) [Mirtazapine] | 572 µM | 572 µM | 180 µM |  | 132 µM |  |  |  |  |  |  |  |  |
